# Assay results as given in patent US20070117743A1, “New antitumoral compounds” (priority 2003, published 2007).
# Read-outs that look alike come from different tables or passages of the source. Where a SMILES comes first, the peptide text is derived from it. Bridges are numbered along the chain shown (N, C = ends). [ ]: non-standard residue; d: D form. The star is where a group is joined. Hexanoyl(4S-Me) = CC[C@H](C)CCC(=O)*; d(aIle) = CC[C@H](C)[C@@H](N)C(=O)O; d(aThr) = C[C@@H](O)[C@@H](N)C(=O)O; Hexanoyl(5-Me) = CC(C)CCCC(=O)*; 2Thi = N[C@@H](Cc1cccs1)C(=O)O; Phg = N[C@H](C(=O)O)c1ccccc1; Orn = NCCC[C@H](N)C(=O)O; Dhb = C/C=C(\N)C(=O)O
# Key:
# Assay type in all cases: cell-based, human
# LoVo-Dox = assay: SRB colorimetric assay of cell growth and viability, LoVo-Dox; conditions: 48 hours exposure; for CC50: read-out: LC50 LOVO-DOX
# How it was run: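 Human tumor cells seeded at 5×10^3/well in RPMI 1640 10% FBS, attached 18 hours, then exposed 48 hours to compound (10 to 10^−8 μg/mL). TCA-fixed, SRB-stained, OD 490 nm; triplicates give GI, TGI and LC values.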
# LoVo = assay: SRB colorimetric assay of cell growth and viability, LoVo; conditions: 48 hours exposure; for CC50: read-out: LC50 LOVO
# K-562 = assay: SRB colorimetric assay of cell growth and viability, K-562; conditions: 48 hours exposure; for CC50: read-out: LC50 K-562
# IGROV-1 = assay: SRB colorimetric assay of cell growth and viability, IGROV-1; conditions: 48 hours exposure
# HeLa = assay: SRB colorimetric assay of cell growth and viability, HeLa; conditions: 48 hours exposure; for CC50: read-out: LC50 HELA
# SK-BR-3 = assay: SRB colorimetric assay of cell growth and viability, SK-BR-3; conditions: 48 hours exposure
# From the text: The finality of this assay is to interrupt the growth of a “in vitro” tumor cell culture by means a continued exhibition of the cells to the sample to be testing.
# This form of the assay employs 96 well cell culture microplates of 9 mm diameter (Faircloth, 1988; Mosmann, 1983). Most of the cell lines are obtained from American Type Culture Collection (ATCC) derived from different human cancer types.
# Cells are maintained in RPMI 1640 10% FBS, supplemented with 0.1 g/l penicillin and 0.1 g/l streptomycin sulfate and then incubated at 37° C., 5% CO2 and 98% humidity. For the experiments, cells were harvested from subconfluent cultures using trypsin and resuspended in fresh medium before plating.
# Cells are seeded in 96 well microtiter plates, at 5×10^3 cells per well in aliquots of 195 μL medium, and they are allowed to attach to the plate surface by growing in drug free medium for 18 hours. Afterward, samples are added in aliquots of 5 μL in a ranging from 10 to 10^−8 μg/mL, dissolved in DMSO:EtOH:PBS (0.5:0.5:99). After 48 hours exposure, the antitumor effect are measured by the SRB methodology: cells are fixed by adding 50 μL of cold 50% (wt/vol) trichloroacetic acid (TCA) and incubating for 60 minutes at 4° C. Plates are washed with deionized water and dried. One hundred μL of SRB solution (0.4% wt/vol in 1% acetic acid) is added to each microtiter well and incubated for 10 minutes at room temperature. Unbound SRB is removed by washing with 1% acetic acid. Plates are air dried and bound stain is solubilized with Tris buffer. Optical densities are read on a automated spectrophotometric plate reader at a single wavelength of 490 nm.
# The values for mean+/− SD of data from triplicate wells are calculated. Some parameters for cellular responses can be calculated: GI=growth inhibition, TGI=total growth inhibition (cytostatic effect) and LC=cell killing (cytotoxic effect).
# PANC-1 = assay: SRB colorimetric assay of cell growth and viability, PANC-1; conditions: 48 hours exposure; for CC50: read-out: LC50 PANC-1
# A-549 = assay: SRB colorimetric assay of cell growth and viability, A-549; conditions: 48 hours exposure; for GI50: read-out: GI50 A-549; for CC50: read-out: LC50 A-549
# IGROV-ET = assay: SRB colorimetric assay of cell growth and viability, IGROV-ET; conditions: 48 hours exposure; for CC50: read-out: LC50 IGROV-ET
# HeLa-APL = assay: SRB colorimetric assay of cell growth and viability, HeLa-APL; conditions: 48 hours exposure; for CC50: read-out: LC50 HELA-APL
# HT-29 = assay: SRB colorimetric assay of cell growth and viability, HT-29; conditions: 48 hours exposure; for GI50: read-out: GI50 HT-29; for CC50: read-out: LC50 HT-29
# DU-145 = assay: SRB colorimetric assay of cell growth and viability, DU-145; conditions: 48 hours exposure
# SK-MEL-28 = assay: SRB colorimetric assay of cell growth and viability, SK-MEL-28; conditions: 48 hours exposure; for CC50: read-out: LC50 MEL-28
compound,measurement,setting,value
"C/C=C1\NC(=O)[C@H](Cc2cccs2)NC(=O)[C@@H](C(C)C)NC(=O)[C@@H]([C@@H](C)CC)NC(=O)[C@H](NC(=O)[C@H](NC(=O)[C@H](CCCN)NC(=O)[C@H]2CCCN2C(=O)[C@H](NC(=O)[C@@H](NC(=O)[C@@H](NC(=O)[C@H](NC(=O)CC[C@@H](C)CC)C(C)C)[C@@H](C)O)C(C)C)C(C)C)[C@@H](C)CC)[C@@H](C)OC(=O)[C@H](C(C)C)NC1=O [Compound 76, [Thi^3, (4S)-MeHex^14]-KF] ({Hexanoyl(4S-Me)}-[dV]TV[dV][dP][Orn][d(aIle)][d(aThr)][d(aIle)][dV][2Thi][Dhb]V; ester 8-C)",GI50,LoVo-Dox; SRB,0.147 µM
same,TGI LOVO-DOX,LoVo-Dox; SRB,2.61E−07 Molar
same,CC50,LoVo-Dox; SRB,0.463 µM
same,GI50,LoVo; SRB,0.243 µM
same,TGI LOVO,LoVo; SRB,7.21E−07 Molar
same,CC50,LoVo; SRB,2.16 µM
same,GI50,K-562; SRB,1.71 µM
same,TGI K-562,K-562; SRB,4.01E−06 Molar
same,CC50,K-562; SRB,6.74 µM
same,GI50,IGROV-1; SRB,1.18 µM
same,LC50 (concentration causing 50% net cell killing),IGROV-1; SRB,3.87 µM
same,TGI IGROV,IGROV-1; SRB,2.14E−06 Molar
same,GI50,HeLa; SRB,1.18 µM
same,TGI HELA,HeLa; SRB,2.01E−06 Molar
same,CC50,HeLa; SRB,3.45 µM
same,GI50,SK-BR-3; SRB,0.313 µM
same,LC50,SK-BR-3; SRB,2.04 µM
same,TGI SK-BR-3,SK-BR-3; SRB,6.26E−07 Molar
same,GI50,PANC-1; SRB,5.93 µM
same,TGI PANC-1,PANC-1; SRB,6.74E−06 Molar
same,CC50,PANC-1; SRB,6.74 µM
same,TGI A-549,A-549; SRB,2.60E−06 Molar
same,GI50,A-549; SRB,1.53 µM
same,CC50,A-549; SRB,4.43 µM
same,GI50,IGROV-ET; SRB,1 µM
same,TGI IGROV-ET,IGROV-ET; SRB,1.85E−06 Molar
same,CC50,IGROV-ET; SRB,3.41 µM
same,GI50,HeLa-APL; SRB,1.35 µM
same,TGI HELA-APL,HeLa-APL; SRB,2.28E−06 Molar
same,CC50,HeLa-APL; SRB,3.86 µM
same,TGI HT-29,HT-29; SRB,1.74E−06 Molar
same,GI50,HT-29; SRB,0.842 µM
same,CC50,HT-29; SRB,3.59 µM
same,GI50,DU-145; SRB,1.2 µM
same,LC50 (concentration causing 50% net cell kill),DU-145; SRB,3.75 µM
same,TGI DU-145,DU-145; SRB,2.12E−06 Molar
same,GI50,SK-MEL-28; SRB,1.54 µM
same,TGI MEL-28,SK-MEL-28; SRB,2.52E−06 Molar
same,CC50,SK-MEL-28; SRB,4.14 µM
"C/C=C1\NC(=O)[C@H](c2ccccc2)NC(=O)[C@@H](C(C)C)NC(=O)[C@@H]([C@@H](C)CC)NC(=O)[C@H](NC(=O)[C@H](NC(=O)[C@H](CCCN)NC(=O)[C@H]2CCCN2C(=O)[C@H](NC(=O)[C@@H](NC(=O)[C@@H](NC(=O)[C@H](NC(=O)CCCC(C)C)C(C)C)[C@@H](C)O)C(C)C)C(C)C)[C@@H](C)CC)[C@@H](C)OC(=O)[C@H](C(C)C)NC1=O [Compound 87, [Phg^3]-KF] ({Hexanoyl(5-Me)}-[dV]TV[dV][dP][Orn][d(aIle)][d(aThr)][d(aIle)][dV][Phg][Dhb]V; ester 8-C)",GI50,LoVo-Dox; LOVO-DOX,0.513 µM
same,TGI LOVO-DOX,LoVo-Dox; LOVO-DOX,1.32E−06 Molar
same,CC50,LoVo-Dox; LOVO-DOX,1.9 µM
same,GI50,LoVo; LOVO,0.957 µM
same,TGI LOVO,LoVo; LOVO,1.90E−06 Molar
same,CC50,LoVo; LOVO,1.9 µM
same,GI50,K-562; K-562,1.9 µM
same,TGI K-562,K-562; K-562,1.90E−06 Molar
same,CC50,K-562; K-562,1.9 µM
same,GI50,IGROV-1; IGROV,0.919 µM
same,LC50 (concentration causing 50% net cell killing),IGROV-1; IGROV,1.9 µM
same,TGI IGROV,IGROV-1; IGROV,1.90E−06 Molar
same,GI50,HeLa; HELA,1.9 µM
same,TGI HELA,HeLa; HELA,1.90E−06 Molar
same,CC50,HeLa; HELA,1.9 µM
same,GI50,SK-BR-3; SK-BR-3,0.748 µM
same,LC50,SK-BR-3; SK-BR-3,1.87 µM
same,TGI SK-BR-3,SK-BR-3; SK-BR-3,1.19E−06 Molar
same,GI50,PANC-1; PANC-1,1.9 µM
same,TGI PANC-1,PANC-1; PANC-1,1.90E−06 Molar
same,CC50,PANC-1; PANC-1,1.9 µM
same,TGI A-549,A-549; A-549,1.90E−06 Molar
same,GI50,A-549; A-549,1.9 µM
same,CC50,A-549; A-549,1.9 µM
same,GI50,IGROV-ET; IGROV-ET,1.29 µM
same,TGI IGROV-ET,IGROV-ET; IGROV-ET,1.90E−06 Molar
same,CC50,IGROV-ET; IGROV-ET,1.9 µM
same,GI50,HeLa-APL; HELA-APL,1.9 µM
same,TGI HELA-APL,HeLa-APL; HELA-APL,1.90E−06 Molar
same,CC50,HeLa-APL; HELA-APL,1.9 µM
same,TGI HT-29,HT-29; HT-29,1.90E−06 Molar
same,GI50,HT-29; HT-29,1.58 µM
same,CC50,HT-29; HT-29,1.9 µM
same,GI50,DU-145; DU-145,1.9 µM
same,LC50 (concentration causing 50% net cell kill),DU-145; DU-145,1.9 µM
same,TGI DU-145,DU-145; DU-145,1.90E−06 Molar
same,GI50,SK-MEL-28; MEL-28,1.9 µM
same,TGI MEL-28,SK-MEL-28; MEL-28,1.90E−06 Molar
same,CC50,SK-MEL-28; MEL-28,1.9 µM
"C/C=C1\NC(=O)[C@H](Cc2ccc(OC)cc2)NC(=O)[C@@H](C(C)C)NC(=O)[C@@H]([C@@H](C)CC)NC(=O)[C@H](NC(=O)[C@H](NC(=O)[C@H](CCCN)NC(=O)[C@H]2CCCN2C(=O)[C@H](NC(=O)[C@@H](NC(=O)[C@@H](NC(=O)[C@H](NC(=O)CC[C@@H](C)CC)C(C)C)[C@@H](C)O)C(C)C)C(C)C)[C@@H](C)CC)[C@@H](C)OC(=O)[C@H](C(C)C)NC1=O [Compound 75, [Tyr(Me)^3, (4S)-MeHex^14]-KF] ({Hexanoyl(4S-Me)}-[dV]TV[dV][dP][Orn][d(aIle)][d(aThr)][d(aIle)][dV]Y(Me)[Dhb]V; ester 8-C)",GI50,LoVo-Dox; SRB,0.137 µM
same,TGI LOVO-DOX,LoVo-Dox; SRB,2.27E−07 Molar
same,CC50,LoVo-Dox; SRB,0.379 µM
same,GI50,LoVo; SRB,0.126 µM
same,TGI LOVO,LoVo; SRB,2.22E−07 Molar
same,CC50,LoVo; SRB,0.391 µM
same,GI50,K-562; SRB,0.533 µM
same,TGI K-562,K-562; SRB,2.15E−06 Molar
same,CC50,K-562; SRB,6.63 µM
same,GI50,IGROV-1; SRB,0.35 µM
same,LC50 (concentration causing 50% net cell killing),IGROV-1; SRB,2.36 µM
same,TGI IGROV,IGROV-1; SRB,8.36E−07 Molar
same,GI50,HeLa; SRB,0.509 µM
same,TGI HELA,HeLa; SRB,1.18E−06 Molar
same,CC50,HeLa; SRB,2.5 µM
same,GI50,SK-BR-3; SRB,0.251 µM
same,LC50,SK-BR-3; SRB,2.38 µM
same,TGI SK-BR-3,SK-BR-3; SRB,6.03E−07 Molar
same,GI50,PANC-1; SRB,1.7 µM
same,TGI PANC-1,PANC-1; SRB,3.08E−06 Molar
same,CC50,PANC-1; SRB,5.59 µM
same,TGI A-549,A-549; SRB,1.91E−06 Molar
same,GI50,A-549; SRB,1.03 µM
same,CC50,A-549; SRB,3.55 µM
same,GI50,IGROV-ET; SRB,0.38 µM
same,TGI IGROV-ET,IGROV-ET; SRB,9.09E−07 Molar
same,CC50,IGROV-ET; SRB,2.41 µM
same,GI50,HeLa-APL; SRB,0.942 µM
same,TGI HELA-APL,HeLa-APL; SRB,1.78E−06 Molar
same,CC50,HeLa-APL; SRB,3.38 µM
same,TGI HT-29,HT-29; SRB,2.80E−07 Molar
same,GI50,HT-29; SRB,0.158 µM
same,CC50,HT-29; SRB,0.495 µM
same,GI50,DU-145; SRB,0.749 µM
same,LC50 (concentration causing 50% net cell kill),DU-145; SRB,3.16 µM
same,TGI DU-145,DU-145; SRB,1.54E−06 Molar
same,GI50,SK-MEL-28; SRB,0.975 µM
same,TGI MEL-28,SK-MEL-28; SRB,1.82E−06 Molar
same,CC50,SK-MEL-28; SRB,3.4 µM
